# According to patent publication US20240317712A1, “[…] DERIVATIVES AS INHIBITORS OF […]-PEPTIDE CYCLOTRANSFERASE AND […]-PEPTIDE CYCLOTRANSFERASE LIKE PROTEIN” (Boehringer Ingelheim International GmbH, priority 2023, published 2024):
# Legend:
# [1] = Assay C: Permeability in CACO-2 cells; assay type: in vitro ADME; settings: human, pH 7.2; for efflux ratio: Caco-2, permeability B−A/permeability A−B; for Papp A→B: Caco-2, apical to basolateral
# Protocol: Caco-2 cells (1-2×10^5 cells/1 cm^2 area) are seeded on filter inserts (Costar transwell polycarbonate or PET filters, 0.4 μm pore size) and cultured (DMEM) for 10 to 25 days. Compounds are dissolved in appropriate solvent (like DMSO, 1-20 mM stock solutions). […] The transport solution (TL) is applied to the apical or basolateral donor side for measuring A-B or B-A permeability (3 filter replicates), respectively. Samples are collected at the start and end of experiment from the donor and at various time intervals for up to 2 hours also from the receiver side for concentration measurement by HPLC-MS/MS or scintillation counting. Sampled receiver volumes are replaced with fresh receiver solution.
# Efflux ratio (ER)=permeability B−A/permeability A−B
# [2] = tested on: SIRPα signalling induced by A549 cells; experiment: Assay B: SIRPα signalling assay using A549 cells; assay type: cell-based; settings: Homo sapiens, 48 h compound incubation, Jurkat PathHunter SIRPaV1 reporter cells, read-out: Inhibition of SIRPα signalling induced by A549 cells: IC50
# Protocol: (§1) Two cell types are independently used: the Raji cell line (lymphoblast-like human cell line derived from B lymphocytes from a Burkitt's lymphoma patient in 1963) and A549 cells (adenocarcinoma human alveolar basal epithelial cells).
# (§2) Test compounds were dissolved in 100% DMSO and serially diluted into a white 384-well microtiter cell culture plate (PerkinElmer #60076780 in case of Raji assay; PDL-coated plates Greiner #781945 in case of A549 assay), 5000 Raji cells (ATCC #CC86) or 5000 A549 cells (ATCC #CCL-185) in Assay Complete Cell Plating reagent 30 (DiscoverX 93-0563R30B) were added per well. The assay plate was incubated for 48 h at 37° C., 95% humidity and 5% CO2. 15000 reporter cells (Jurkat PathHunter SIRPaV1, DiscoverX #93-1135C19) were added to each well, and the plate was incubated for 5 h at 37° C., 95% humidity and 5% CO2. Bioassay reagent 1 of the PathHunter Bioassay detection kit (DiscoverX 93-0001) was added to each well of the plate using a multichannel pipette followed by a 15 min incubation at room temperature. Afterwards bioassay reagent 2 was added followed by 60 min incubation at room temperature (incubation in the dark). The analysis of the data was performed using the luminescence signal generated by beta-galactosidase in the PathHunter reporter cell line. The luminescence measurement was done using a Pherastar Multi-Mode Reader. Dose-response curves & IC50 data were calculated with 4-parameter sigmoidal dose response formula.
# [3] = molecular target: T1, QPCT (Homo sapiens, UniProt Q16769); experiment: Assay A: biochemical QPCT activity assay (MALDI-TOF MS, CD47 peptide substrate); settings: 0.5 nM enzyme, 20 μM CD47 peptide substrate; read-out: Inhibition of QPCT: IC50
# T1 construct: purchased Origine (so in the source)
# Protocol: (§3) QPCT or QPCTL dependent conversion of N-terminal glutamine to pyroglutamate of CD47 was monitored via MALDI-TOF MS. Test compounds were dissolved in 100% DMSO and serially diluted into clear 1,536-well microtiter plates. Enzymatic reactions were set up in assay buffer containing 20 mM Tris pH 7.5, 0.1 mM TCEP, 0.01% BSA, and 0.001% Tween20. […] The plates were incubated for 10 min in a humidified incubator at 24° C. Subsequently, 2.5 µL of CD47 peptide substrate surrogate (^19[…]^33) was added to each well (final concentration: 10 μM for QPCTL/20 μM for QPCT). The plates were mixed for 30 sec at 1,000 rpm and subsequently incubated for 40 min in a humidified incubator at 24° C. […] The plates were sealed with an adhesive foil, mixed for 30 s at 1,000 rpm and stored at room temperature until preparation of the MALDI target plates. MALDI target plates were prepared as described previously. […] QPCT or QPCTL activity was monitored by calculating the ratio between product and internal standard signals followed by normalization to high (100% activity) and low (0% activity) controls. Determination of compound potencies was obtained by fitting the dose-response data to a four-parameter logistical equation.
# [4] = molecular target: T2, QPCTL (Homo sapiens, UniProt Q9NXS2); experiment: Assay A: biochemical QPCTL activity assay (MALDI-TOF MS, CD47 peptide substrate); settings: 0.5 nM enzyme, 10 μM CD47 peptide substrate; read-out: Inhibition of QPCTL: IC50
# T2 construct: made in house
# Protocol: as §3
# [5] = tested on: SIRPα signalling induced by Raji cells; experiment: Assay B: SIRPα signalling assay using Raji cells; assay type: cell-based; settings: Homo sapiens, 48 h compound incubation, Jurkat PathHunter SIRPaV1 reporter cells, read-out: Inhibition of SIRPα signalling induced by Raji cells: IC50
# Protocol: as §1, §2
# T2 sequence (Q9NXS2 whole entry): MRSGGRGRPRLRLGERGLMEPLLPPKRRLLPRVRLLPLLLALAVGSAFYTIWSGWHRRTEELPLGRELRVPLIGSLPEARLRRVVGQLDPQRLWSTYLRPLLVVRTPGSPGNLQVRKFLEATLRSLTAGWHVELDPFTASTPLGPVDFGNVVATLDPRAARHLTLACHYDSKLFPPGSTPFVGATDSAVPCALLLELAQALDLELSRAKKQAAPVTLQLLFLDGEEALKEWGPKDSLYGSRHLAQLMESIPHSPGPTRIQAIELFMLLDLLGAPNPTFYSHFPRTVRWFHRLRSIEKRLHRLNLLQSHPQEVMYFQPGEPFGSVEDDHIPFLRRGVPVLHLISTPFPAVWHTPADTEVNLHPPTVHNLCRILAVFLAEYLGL
# T1 sequence (Q16769 29-361): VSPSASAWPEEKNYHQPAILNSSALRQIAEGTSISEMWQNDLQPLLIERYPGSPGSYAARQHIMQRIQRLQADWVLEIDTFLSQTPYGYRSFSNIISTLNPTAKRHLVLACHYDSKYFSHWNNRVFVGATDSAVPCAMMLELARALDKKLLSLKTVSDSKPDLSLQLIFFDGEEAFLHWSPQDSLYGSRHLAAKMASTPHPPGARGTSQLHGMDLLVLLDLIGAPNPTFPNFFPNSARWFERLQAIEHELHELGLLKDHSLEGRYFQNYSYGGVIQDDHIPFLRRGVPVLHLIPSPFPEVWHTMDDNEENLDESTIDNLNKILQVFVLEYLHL
Compound,efflux ratio [1],Papp A→B [1] [×10⁻⁶ cm/s],IC50 [2] [nM],IC50 [3] [nM],IC50 [4] [nM],IC50 [5] [nM]
Cn1cnnc1C1(F)CCN(c2c(-c3ccc(F)nc3)ccc(Cl)c2C#N)CC1 [Example 28],1.7,34,12,2,2,93
Cn1cnnc1C1(F)CCN(c2c(-c3ccc(F)nc3)ccc(C(F)(F)F)c2C#N)CC1 [Example 29],1.4,53,19,2,1,78
Cn1cnnc1C1CCN(c2c(-c3ccc(F)nc3)ccc(C(F)(F)F)c2C#N)CC1 [Example 31],3.5,22,19,4,1,77
Cn1cnnc1C1CCN(c2c(-c3cnc4nn(C(C)(C)C)cc4c3)ccc(C(F)(F)F)c2C#N)CC1 [Example 32],146,0.2,36,2,2,70
COc1ccc(-c2cnc3nn(C(C)(C)C)cc3c2)c(N2CCC(F)(c3nncn3C)CC2)c1C#N [Example 33],51.9,0.8,11,1,1,20

# Stronger by IC50 [2], values ahead:
efflux ratio [1],Papp A→B [1] [×10⁻⁶ cm/s],IC50 [2] [nM],IC50 [3] [nM],IC50 [4] [nM],IC50 [5] [nM],Compound
6.7,5.7,9,1,1,8,Cn1cnnc1C1(F)CCN(c2c(C#N)cc(C(F)(F)F)cc2-c2cnc3nn(C(F)(F)F)cc3c2)CC1 [Example 36]
3.9,14,8,1,1,16,Cn1cnnc1C1CCN(c2c(C#N)cc(F)cc2-c2cnc3nn(C(C)(C)C)c(Cl)c3c2)CC1 [Example 26]
22.9,1.7,8,1,1,19,Cn1cnnc1C1(F)CCN(c2c(-c3cnc4nn(C(C)(C)C)cc4c3)ccc(C(F)(F)F)c2C#N)CC1 [Example 30]
19.1,2.2,7,1,1,19,Cn1cnnc1C1(F)CCN(c2c(-c3cnc4nn(C(C)(C)C)cc4c3)ccc(Cl)c2C#N)CC1 [Example 27]
17.1,4.8,6,2,1,16,Cn1cnnc1C1(F)CCN(c2c(C#N)cc(C(F)(F)F)cc2-c2cnc3nc(C4(C)CC4)nn3c2)CC1 [Example 35]
